According to article PMC6095874, “Discovery of cationic nonribosomal peptides as Gram-negative antibiotics through global genome mining” (Nature Communications, 2018):
≈ marks a conversion by molar mass, not a printed value. Read-outs that look alike come from different tables or passages of the source. Where a SMILES comes first, the peptide text is derived from it. Bridges are numbered along the chain shown (N, C = ends). [ ]: non-standard residue; d: D form. The star is where a group is joined. Octanoyl(7-Me) = CC(C)CCCCCC(=O)*; dOrn = NCCC[C@@H](N)C(=O)O; X1 = CC[C@H](C)CCCCC(=O)*; Orn = NCCC[C@H](N)C(=O)O; Dab = NCC[C@H](N)C(=O)O

What was measured:
[1] = test system: Escherichia coli ATCC 25922; assay: microbe, parasite or virus in culture; format: cell-based; conditions: for MIC, Ec: Supplementary Table 1, Ec = Escherichia coli ATCC 25922
Experimental: (§1) MIC was determined by broth microdilution according to CLSI guidelines. The test medium for most species was Mueller–Hinton broth (MHB). Bacteria were grown overnight to early stationary phase and adjusted in MHB to 5.0 × 10^5 c.f.u. mL^−1 in the wells of 96-well microtiter plates (Falcon® 96-Well Flat-Bottom Microplate, Tissue Culture-Treated), mixed with varying concentrations of test compounds and incubated at 37 °C for 24 h. Cell growth was evaluated by measuring the optical density at 595 nm (Thermo Scientific Multiskan FC multiplate photometer) (Waltham, MA, USA), and the MIC was defined as the lowest compound concentration at which no bacterial growth was observed. MHBs containing 10% fetal bovine serum (Gibco), 21 mM MgCl, or 1.0 mg mL^−1 LPS (lipopolysaccharides from E. coli O55:B5, Sigma-Aldrich) was used to test their inhibitory effects.

[2] = test system: Colistin-resistant E. coli (E. coli ATCC 25922 carrying mcr-1); assay: MIC by broth microdilution; format: cell-based, Escherichia coli; conditions: MHB, 37 °C, 24 h
Experimental: as §1

[3] = test system: Gram-negative bacteria; format: cell-based
Experimental: as §1

[4] = test system: Pseudomonas aeruginosa PAO1; format: cell-based; conditions: for MIC, Pa: Supplementary Table 1, Pa = Pseudomonas aeruginosa PAO1
Experimental: as §1

[5] = test system: Staphylococcus aureus (MRSA); format: cell-based
Experimental: as §1

[6] = test system: Acinetobacter baumannii; assay: MIC by broth microdilution; format: cell-based; conditions: Supplementary Table 1
Experimental: as §1

[7] = test system: Bacillus subtilis 168; assay: MIC by broth microdilution; format: cell-based; conditions: Supplementary Table 1; Bs = B. subtilis 168
Experimental: as §1

[8] = test system: Enterobacter cloacae NRRL-B-413; assay: MIC by broth microdilution; format: cell-based; conditions: Supplementary Table 1; En = Enterobacter cloacae NRRL-B-413
Experimental: as §1

[9] = test system: Klebsiella pneumoniae NRRL-B-408; assay: MIC by broth microdilution; format: cell-based; conditions: Supplementary Table 1; Kp = Klebsiella pneumoniae NRRL-B-408
Experimental: as §1

[10] = test system: K. pneumoniae NRRL-B-3521; format: cell-based, Klebsiella pneumoniae
Experimental: as §1

[11] = test system: E. cloacae NRRL-B-425; format: cell-based, Enterobacter cloacae
Experimental: as §1

[12] = test system: Candida albicans; format: cell-based
[13] = test system: Saccharomyces cerevisiae; format: cell-based
[14] = test system: E. coli TOP10 cells; assay: Time-kill assay; format: cell-based, Escherichia coli; conditions: for cell viability in time-kill assay: ten times the MIC, early exponential cells, room temperature, c.f.u. counts, triplicate
Experimental: (§2) An overnight culture of E. coli TOP10 cells was diluted 1:10,000 in MHB and incubated at 37 °C with agitation at 180 rpm for 2 h (early exponential). The bacteria were then challenged with brevicidine (20 μg mL^−1), laterocidine (20 μg mL^−1), or polymyxin B (10 μg mL^−1) at ten times the MIC at room temperature without shaking. An untreated sample of cells was used as a negative control. At intervals, 10 μL aliquots were removed, centrifuged at 10,000 × g for 1 min and resuspended in 1.0 mL of sterile PBS. Tenfold serially diluted suspensions were plated on MHB agar plates and incubated at 37 °C overnight. Colonies were counted and the number of c.f.u. per mL was calculated. For analysis of lysis, 300 μL of culture (OD600 = 1.0) were treated with antibiotics at ten times the MIC for 24 h. Experiments were performed in triplicate.

[15] = test system: E. coli TOP10 cells; assay: Bacterial growth kinetics; format: cell-based, Escherichia coli; conditions: OD600 of cells exposed to antibiotics (Fig. 4: two times the MIC)
Experimental: A single fresh colony of E. coli TOP10 cells was inoculated into MHB (5 mL) and grown with shaking at 225 rpm overnight. The bacteria were diluted to 1 × 10^5 c.f.u. mL^−1 in fresh MHB, grown […] to early log-phase (OD600 = 0.15) and treated with the antibiotics of interest in the wells of a 96-well plate. Final antibiotic concentrations varied from one to eight times the MIC. The plate was then incubated at 30 °C overnight, with OD600 measurements taken every 30 s.

[16] = test system: E. coli; assay: Lysis assay; format: cell-based, Escherichia coli; conditions: ten times the MIC, culture OD600 = 1.0, 24 h
Experimental: as §2

[17] = test system: E. coli ATCC 25922; assay: Resistance acquisition during serial passaging; format: cell-based, Escherichia coli; conditions: subinhibitory concentrations, 30-day period, MHB, 37 °C, quadruplicate
Experimental: E. coli ATCC 25922 was inoculated into MHB overnight at 37 °C with continuous shaking. Cells were diluted 10,000 times in MHB to about 1 × 10^6 c.f.u. mL^−1. Ten µL aliquots were drawn to a 96-well plate containing 90 µL of serially diluted brevicidine, laterocidine, and ciprofloxacin, at final concentrations of 0.5×, 1×, 1.5×, 2×, and 4× MIC. […] Plates with bacteria were incubated at 37 °C without shaking. […] This process was repeated for 30 days, and the final MIC was confirmed by the same antibacterial assay as the one described above. The experiment was performed in quadruplicate, and on each day, the sample that developed the highest resistance was measured to plot the curve. For single-step resistance, E. coli ATCC 25922 cells at 10^8 c.f.u. were plated onto Mueller–Hinton agar containing 4× MIC of brevicidine.

[18] = test system: E. coli ATCC 25922; assay: Neutropenic mouse thigh infection model; format: in vivo; conditions: laterocidine 15 mg kg^−1 twice s.c., five mice, after 26 h, Mann–Whitney P < 0.01
Experimental: Given the low risk of resistance and the attractive mode of action of 1–2, an animal efficacy study was then performed in a mouse thigh model. Mice were intramuscularly infected with 1.50 × 10^6 c.f.u. of E. coli ATCC 25922. Two hours post infection, brevicidine (30 mg kg^−1) or laterocidine (15 mg kg^−1) was subcutaneously injected at two doses. […] In particular, compound 1 was highly efficacious in mice infected with E. coli and caused a 5 log10 reduction in c.f.u. in the thigh compared to the vehicle control after 24 h (Fig. 4f).
In vivo activities of brevicidine and laterocidine were tested using the mouse thigh infection model. Animal studies were performed by Pharmacology Discovery Services Taiwan Ltd. in general accordance with standard guidelines on animal welfare[38] in an AAALAC-accredited facility. The protocol was reviewed and approved by the Institutional Animal Care and Use Committee. Groups of five female-specific pathogen-free ICR (CD-1) mice weighing 22 ± 2 g (~5 weeks of age) were used. Animals were immunosuppressed with two intraperitoneal injections of cyclophosphamide, the first at 150 mg kg^−1 4 days before infection (day −4) and the second at 100 mg kg^−1 1 day before infection (day −1). On day 0, animals were inoculated intramuscularly (0.1 mL per thigh) in the right thigh with an E. coli ATCC 25922 suspension. Vehicle (10% DMSO, 1% Tween 80, 0.9% NaCl) and antibiotics were then subcutaneously injected 2 and 8 h later. Due to the limited availability of compounds 1–2, only one concentration of 1 (30 mg kg^−1) or 2 (15 mg kg^−1) was used in the present study. Precisely 26 h after inoculation, animals were euthanized by CO2 asphyxiation before their right thigh muscles were harvested. The removed muscles were homogenized in 5 mL of PBS, pH 7.4, with a Polytron homogenizer. Homogenates in the amount of 0.1 mL were used for serial tenfold dilutions and plated onto a nutrient agar medium for colony count (in c.f.u. g^−1) determination. No randomization or blinding was necessary for the animal infection models, and no samples were excluded.

[19] = test system: rabbit erythrocytes; conditions: concentrations up to 128 μg mL^−1, 2% (v/v) rabbit erythrocytes in PBS, 1 h, 37 °C, absorbance 570 nm, vs 10% Triton X-100
Experimental: Hemolytic activity was determined with red blood cells freshly isolated from healthy rabbits. […] The cells were incubated for 1 h at 37 °C and centrifuged for 5 min at 10,000 × g. The supernatant was transferred to a 96-well plate and the absorbance was measured at a wavelength of 570 nm with a Thermo Scientific Multiskan FC multiplate photometer. The absorbance relative to the positive control, which was treated with 10% Triton X-100, was defined as the percentage of hemolysis.

[20] = test system: Human HeLa cells; conditions: concentrations up to 128 μg mL^−1, 48 h, 37 °C, MTT, absorbance 570 nm
Experimental: Human HeLa cells were used in the assay. Ninety μL of 1 × 10^5 mL^−1 cells were placed into the wells of 96-microwell plates. After 12 h, 10 μL of a medium containing test compounds at various concentrations were added to the cells which were then incubated at 37 °C for 48 h. Afterward, the supernatant was removed and 20 μL of MTT (3-(4,5-Dimethylthiazol-2-yl)-2,5-Diphenyltetrazolium Bromide) (2.5 mg mL^−1) in PBS were added to each well. After incubation at 37 °C for 3 h, 80 μL of dimethyl sulfoxide (DMSO) were added to each well and incubated for an additional 15 min. The absorbance was then measured at 570 nm with a Thermo Scientific Multiskan FC multiplate photometer.

[21] = Peptide binding to LPS by isothermal titration calorimetry; parameters: species or system Escherichia coli; conditions: 37 °C, 20 mM HEPES pH 7.0
Experimental: Microcalorimetric experiments of peptide binding to LPS were performed on an MCS isothermal titration calorimeter (Microcal, Northampton, MA) at 37 °C. LPS was prepared as a 50 µM aqueous suspension in 20 mM HEPES buffer (pH 7.0) by suspension, sonication, and temperature cycling between 5 and 70 °C. This suspension was stored at 4 °C overnight prior to use. Aliquots of 100 µM peptide solutions (brevicidine and polymyxin B) were prepared in the same buffer and all solutions were degassed prior to use by stirring under vacuum for 5 min at 37 °C. After thermal equilibration, 5 µL aliquots of the peptide solution were added every 3 min into the lipid-containing cell at 37 °C with constant stirring. The change in heat during the titration steps was registered in real time and raw data were processed using the Origin® 7 software provided with the instrument. In control experiments, the corresponding peptide solution (or LPS solution) was injected into the buffer without LPS (or without peptide).

[22] = broth microdilution, MHB, 37 °C, 24 h

C[C@H]1COc2c(N3CCN(C)CC3)c(F)cc3c(=O)c(C(=O)O)cn1c23 [Levofloxacin]
MIC ([1]; Escherichia coli, ATCC25922, positive control of the mouse thigh model infected with E. coli ATCC 25922, strain for MIC not stated explicitly, read-out: MIC): 0.032 µg/mL (≈ 0.0886 µM)

CC[C@H](C)[C@@H]1NC(=O)[C@@H](NC(=O)[C@H](Cc2c[nH]c3ccccc23)NC(=O)[C@@H](CCCN)NC(=O)CNC(=O)[C@H](CCCN)NC(=O)[C@@H](CCCN)NC(=O)[C@@H](Cc2c[nH]c3ccccc23)NC(=O)[C@@H](Cc2ccc(O)cc2)NC(=O)[C@@H](CO)NC(=O)CCCCCC(C)C)[C@@H](C)OC(=O)CNC(=O)CNC(=O)[C@H](CC(N)=O)NC1=O [Compound 2, laterocidine] ({Octanoyl(7-Me)}-[dS][dY][dW][dOrn][Orn]G[dOrn]WTINGG; ester 9-C)
MIC, Ec [1]: 2 µg/mL (≈ 1.25 µM) | MIC [2]: 2 µg/mL (≈ 1.25 µM) | MIC values against Gram-negative bacteria ([3]; 24 h): 0.66 to 10.5 µM | MIC values against Gram-negative bacteria ([3]; range over Gram-negative strains incl. P. aeruginosa and colistin-resistant E. coli): 1 to 16 µg/mL | MIC, Pa [4]: 2 µg/mL (≈ 1.25 µM) | MIC ([5]; 24 h): >64 µg/mL | MIC, Ab [6]: 4 µg/mL (≈ 2.49 µM) | MIC, Bs [7]: 32 µg/mL (≈ 19.9 µM) | MIC, En [8]: 2 µg/mL (≈ 1.25 µM) | MIC, Kp [9]: 4 µg/mL (≈ 2.49 µM) | MIC ([10]; NRRL-B-3521, 24 h): 4 µg/mL (≈ 2.49 µM) | MIC ([11]; NRRL-B-425, 24 h): 2 µg/mL (≈ 1.25 µM) | MIC ([12]; 24 h): >64 µg/mL | MIC ([13]; 24 h): >64 µg/mL | bactericidal action against E. coli ([14]; as revealed by growth kinetics, time-kill assay and lysis assay): bactericidal | cell viability in time-kill assay [14]: significant reduction after 30 min | growth kinetics of E. coli cells exposed to compound [15]: grew at a reduced rate for 30 min | lysis of E. coli cells [16]: completely lysed | resistance development during serial passaging [17]: did not develop resistance | viable bacteria in thigh [18]: reduced number of viable bacteria | lysis of erythrocytes (hemolysis) [19]: neither caused the lysis of erythrocytes | toxicity against the human cell line HeLa [20]: nor showed significant toxicity

O=C(O)c1cn(C2CC2)c2cc(N3CCNCC3)c(F)cc2c1=O [ciprofloxacin, reference compound]
resistance development during serial passaging [17]: developed resistance

CC[C@H](C)CCCCC(=O)N[C@@H](CCN)C(=O)N[C@H](C(=O)N[C@@H](CCN)C(=O)N[C@H]1CCNC(=O)[C@H]([C@@H](C)O)NC(=O)[C@H](CCN)NC(=O)[C@H](CCN)NC(=O)[C@H](CC(C)C)NC(=O)[C@@H](CC(C)C)NC(=O)[C@H](CCN)NC1=O)[C@@H](C)O [Colistin, reference compound] (X1-[Dab]T[Dab][Dab][Dab][dL]L[Dab][Dab]T; lactam 4-C (inferred); N-terminus assumed)
MIC ([1]; broth microdilution (CLSI), MHB, 5.0 × 10^5 c.f.u. mL^−1, 37 °C, 24 h, OD 595 nm): 2 µg/mL (≈ 1.71 µM) | MIC [2]: 16 µg/mL (≈ 13.7 µM) | MIC [4, 22]: 1 µg/mL (≈ 0.855 µM)

CC[C@H](C)CCCCC(=O)N[C@@H](CCN)C(=O)N[C@H](C(=O)N[C@@H](CCN)C(=O)N[C@H]1CCNC(=O)[C@H]([C@@H](C)O)NC(=O)[C@H](CCN)NC(=O)[C@H](CCN)NC(=O)[C@H](CC(C)C)NC(=O)[C@@H](Cc2ccccc2)NC(=O)[C@H](CCN)NC1=O)[C@@H](C)O [Polymyxin B, reference compound] (X1-[Dab]T[Dab][Dab][Dab][dF]L[Dab][Dab]T; lactam 4-C (inferred); N-terminus assumed)
MIC, Ec [1]: 1 µg/mL (≈ 0.831 µM) | MIC [2]: 16 µg/mL (≈ 13.3 µM) | MIC, Pa [4]: 1 µg/mL (≈ 0.831 µM) | MIC, MRSA ([5]; Supplementary Table 1, MRSA = Methicillin-resistant Staphylococcus aureus ATCC 43300): 32 µg/mL (≈ 26.6 µM) | MIC, Ab [6]: 4 µg/mL (≈ 3.32 µM) | MIC, Bs [7]: 4 µg/mL (≈ 3.32 µM) | MIC, En [8]: 8 µg/mL (≈ 6.65 µM) | MIC, Kp [9]: 16 µg/mL (≈ 13.3 µM) | MIC [10, 22]: 2 µg/mL (≈ 1.66 µM) | MIC [11, 22]: 64 µg/mL (≈ 53.2 µM) | MIC ([12]; broth microdilution): >64 µg/mL | MIC ([13]; broth microdilution): >64 µg/mL | time to kill all cells in time-kill assay ([14]; ten times the MIC (polymyxin B 10 μg mL^−1)): ≤ 30 min | cell viability in time-kill assay [14]: significantly reducing the viable cell population after 5 min | binding to LPS (ITC) [21]: strong binding to LPS
